# Assays:
# [1] = target: T1, PAF receptor (human platelet membrane) (Homo sapiens, UniProt P25105); assay: Assay A: Human Platelet Receptor Binding (inhibition of specific [^3 H]PAF binding to human platelet membrane preparation); conditions: for IC50: human platelet membranes, 0.75 nM [^3 H]PAF, 30 minutes at 24° C., pH 7.4
# T1 construct: The platelets were broken by freezing in a dry ice-ethanol bath; tissue Lifesource, Inc. (Glenview, Ill.); host or cells: human packed platelets (membrane preparation)
# Method: Compounds of the invention were evaluated for their ability to inhibit specific binding of [^3 H]PAF to human platelet membrane preparation. Human packed platelets were obtained from Lifesource, Inc. (Glenview, Ill.) and washed 3 times with 10 mM Trizma pH 7.0, 2 mM EDTA (dipotassium salt), 150 mM KCL and then once with 10 mM Trizma 7.4, 20 mM CaCL2. The platelets were broken by freezing in a dry ice-ethanol bath, followed by thawing in 24° C. water baths. The preparation was centrifugation (40,000 x g, 20 minutes, 4° C.) and the pellet resuspended in 10 mM Trizma 7.4, 20 mM CaCL2, 5 mg/ml human albumin. Protein concentration in the platelet membrane preparation was determined by the Lowry method [ref]. Aliquots of the membrane preparation were stored at -70° C. Each preparation was characterized for PAF receptor number and dissociation constant (Kd). In binding assays 5 μl of test compound, solubilzed in DMSO, was added to polypropylene tubes along with 0.75 nM [^3 H]PAF and 200 mcl [0.075 nM] of membranes and 95 μl 10 mM Trizma 7.4, 20 mM CaCL2, 5 mg/ml human albumin. Tubes were incubated for 30 minutes at 24° C. The incubation was terminated by adding 4 ml of ice-cold 10 mM Trizma DH 7.4, 20 mM CaCL2 and 20 mg/ml BSA prior to vacuum filtration using Whatman GF/C filters. Filters were prepared and counted for a scintillation counter. All DPM values were corrected for background and isotope decay. Triplicate determinations for single doses were averaged. The amount of non-specific binding was subtracted from all dose averages, giving an amount of specific binding in all cases. The IC50 values for compounds of the invention determined by the Allfit program using percent displacement data. Allfit is a `basic` computer program for simultaneous curve fitting of a family of signoidal dose-response curves using the four parameter logistic equation.
# [2] = test system: PAF-induced aggregation of human platelets; assay: Assay B: Human Platelet Aggregation Inhibition (PAF-induced aggregation in human platelet-rich plasma); type: cell-based; conditions: 37°
# Method: Compounds of the invention were evaluated for their ability to inhibit PAF-induced aggregation of human platelets in a human-platelet-rich plasma. Venous blood was collected from donors who fasted for 8 hours and were instructed not to use antiinflammatory drugs for 2 weeks prior to blood draw. Blood was collected into syringes containing 0.1 ml of 3.8% [w/v] citrate and centrifuged in polypropylene tubes at 150xg for 20 minutes at room temperature. The platelet rich plasma [PRP] was collected and let sit for 20 minutes at room temperature. Platelet activating factor [PAF] was diluted in 0.9% NaCl with 0.25% bovine serum albumin. Silicon treated cuvettes with stir bars were placed in the 37° heating block of the platelet aggregometer [Bio/Data Corporation, Platelet Aggregation Profiler, Model PAP-4]. PRP and test compound were added to cuvettes and aggregation monitored for 10-15 seconds at 37° with stirring. PAF was added and aggregation monitored for an additional 3 minutes. Peak aggregation was considered the peak of the first aggregation wave usually 45-60 seconds after PAF addition. Inhibition of aggregation was determined by the following: 1-[(% aggregation in the presence of compound).div.(% maximal aggregation)]. A log/logit transformation was used to determine half maximal inhibitory concentration of a test compound [IC50 ].
# [3] = target: T2, [^3 H]PAF receptors on human neutrophil membrane (Homo sapiens, UniProt P25105); assay: Assay C: Human Neutrophil Receptor Binding (inhibition of specific [^3 H]PAF binding to human neutrophil membrane); conditions: human neutrophil membranes, 0.9 nM [^3 H]PAF, 30 minutes at 24°, pH 7.4
# T2 construct: Human neutrophils were isolated from venous blood by dextran sedimentation; from tissue; host or cells: human neutrophils from venous blood (membrane preparation)
# Method: Compounds of the invention were evaluated for their ability to inhibit PAF-induced specific binding of [^3 H]PAF to receptors on human neutrophil membrane. Human neutrophils were isolated from venous blood by dextran sedimentation followed by density gradient centrifugation using Ficoll-Hypaque [J. Biol. Chem., 254:7865-7869, 1979]. Residual red blood cells were removed by hypotonic lysis. Neutrophils were suspended in 50 mM Tris-HCl buffer, pH 7.7, and cells disrupted by sonication for 15 seconds on ice. Unbroken cells and nuclei were removed by slow speed centrifugation [1000xg, 10 min. 4°]. The resultant supernatant was centrifuged at 100,000xg for 60 minutes at 4°. The pellet was suspended in 10 mM Tris-HCl, pH 7.4, with 10 mM MgCl2. Protein content was determined by the method of Lowry [J. Biol. Chem., 193:265-275, 1951]. Membranes were characterized for the concentration of binding sites [Bmax] and affinity for the ligand [Kd] using [^3 H]PAF by Scatchard analysis. Binding assays were conducted by incubating 50 mcg of membranes with 0.9 nM [^3 H]PAF and test compounds in 10 mM Tris-HCl buffer, pH 7.4, containing 0.1% bovine serum albumin. Nonspecific binding was determined by the addition of 1 μM PAF. Binding assay were done for 30 minutes at 24°. The assay was terminated by filtration-through a Whatman GF/C glass filters and radioactivity determined by liquid scintillation counting.
# T2 sequence (P25105 whole entry): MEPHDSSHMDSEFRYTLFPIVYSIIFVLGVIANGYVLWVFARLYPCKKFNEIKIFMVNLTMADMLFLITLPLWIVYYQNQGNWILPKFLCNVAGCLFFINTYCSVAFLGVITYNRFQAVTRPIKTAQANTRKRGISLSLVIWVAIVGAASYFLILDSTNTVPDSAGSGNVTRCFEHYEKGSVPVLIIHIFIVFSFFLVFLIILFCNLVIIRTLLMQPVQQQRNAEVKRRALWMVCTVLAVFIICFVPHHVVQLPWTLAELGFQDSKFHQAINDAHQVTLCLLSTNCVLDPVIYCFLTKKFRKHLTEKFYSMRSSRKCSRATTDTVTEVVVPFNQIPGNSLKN
# T1 sequence (P25105 whole entry): as above
SMILES,IC50 [1],other results
COc1cc(C(=O)N(C2CCCC2)C2CCCC2)ccc1Cn1cnc2cccnc21 [Example 1],1030 nM,–
"COc1cc(C(=O)N(C2CCCC2)C2CCCC2)ccc1Cn1cnc2ncccc21 [Example 2, N, N-dicyclopentyl-4-(1H-imidazo[4,5-b]pyridin-1-ylmethyl)-3-methoxybenzamide]",78 nM,IC50 [2]: 227 nM
"COc1cc(Cn2cnc3cccnc32)ccc1C(=O)N(C(C)C)C1CCCCC1 [Example 3, N-cyclohexyl-4-(3H-imidazo[4,5-b]pyridin-3-ylmethyl)-2-methoxy-N-(1-methylethyl)benzamide]",2 nM,IC50 [2]: 7 nM; IC50 [3]: 0.5 nM
"COc1cc(Cn2cnc3ncccc32)ccc1C(=O)N(C(C)C)C1CCCCC1 [Example 4, N-cyclohexyl-4-(1H-imidazo[4,5-b]pyridin-1-ylmethyl)-2-methoxy-N-(1-methylethyl)benzamide]",150 nM,–
"COc1cc(C(=O)N(C(C)C)C2CCCCC2)ccc1Cn1cnc2cccnc21 [Example 5, N-cyclohexyl-4-(3H-imidazo[4,5-b]pyridin-3-ylmethyl)-3-methoxy-N-(1-methylethyl)benzamide]",420 nM,–
"COc1cc(C(=O)N(C(C)C)C2CCCCC2)ccc1Cn1cnc2ncccc21 [Example 6, N-cyclohexyl-4-(1H-imidazo[4,5-b]pyridin-1-ylmethyl)-3-methoxy-N-(1-methylethyl)benzamide]",6 nM,IC50 [2]: 113 nM; IC50 [3]: 8 nM
"COc1cc(Cn2cnc3cccnc32)ccc1C(=O)N(C1CCCC1)C1CC(C)CC(C)C1 (stereo not shown) [Example 7, N-cyclopentyl-N-(3,5-dimethylcyclohexyl)-4-(3H-imidazo[4,5-b]pyridin-3-ylmethyl)-2-methoxybenzamide]",73 nM,–
"COc1cc(Cn2cnc3ncccc32)ccc1C(=O)N(C1CCCC1)C1CC(C)CC(C)C1 (stereo not shown) [Example 8, N-cyclopentyl-N-(3,5-dimethylcyclohexyl)-4-(1H-imidazo[4,5-b]pyridin-1-ylmethyl)-2-methoxybenzamide]",35 nM,IC50 [2]: 7 nM; IC50 [3]: 23 nM
"Cc1cc(C(=O)N(C2CCCCC2)C2CCCC2)ccc1Cn1cnc2ncccc21 [Example 9, N-cyclohexyl-N-cyclopentyl-4-(1H-imidazo[4,5-b]pyridin-1-ylmethyl)-3-methylbenzamide]",479 nM,–
"Cc1cc(C(=O)N(C2CCCCC2)C2CCCC2)ccc1Cn1cnc2cccnc21 [Example 10, N-cyclohexyl-N-cyclopentyl-4-(3H-imidazo[4,5-b]pyridin-3-ylmethyl)-3-methylbenzamide]",5240 nM,–
"COc1cc(C(=O)N(C(C)C)C2CCCCC2)ccc1Cn1c(C)nc2ncccc21 [Example 11, N-cyclohexyl-3-methoxy-N-(1-methylethyl)-4-[(2-methyl-1H-imidazo[4,5-b]pyridin-1-yl)methyl]benzamide]",9 nM,–
"COc1cc(C(=O)N(C(C)C)C2CCCCC2)ccc1Cn1c(C)nc2cccnc21 [Example 12, N-cyclohexyl-3-methoxy-N-(1-methylethyl)-4-[(2-methyl-3H-imidazo [4,5-b]pyridin-3-yl)methyl]benzamide]",1160 nM,–
"COc1cc(Cn2cnc3ncccc32)ccc1C(=O)N(C1CCCCC1)C1CCCC1 [Example 13, N-cyclohexyl-N-cyclopentyl-4-(1H-imidazo[4,5-b]pyridin-1-ylmethyl)-2-methoxybenzamide]",206 nM,–
"COc1cc(C(=O)N(C(C)C)C2CCCCC2)ccc1Cn1c(-c2ccccc2Cl)nc2ncccc21 [Example 14, 4-[[2-(2-chlorophenyl)-1H-imidazo[4,5-b]pyridin-1-yl]methyl]-N-cyclohexyl-3-methoxy-N-(1-methylethyl)benzamide]",395 nM,–
"COc1cc(C(=O)N(C(C)C)C2CCCCC2)ccc1Cn1c(-c2ccccc2Cl)nc2cccnc21 [Example 15, 4-[[2-(2-chlorophenyl) -3H-imidazo[4,5-b]pyridin-3yl]methyl]-N-cyclohexyl-3-methoxy-N-(1-methylethyl)benzamide]",574 nM,–
"COc1cc(C(=O)N(C(C)C)C2CCCCC2)ccc1Cn1c(CO[Si](C)(C)C(C)(C)C)nc2ncccc21 [Example 16, N-cyclohexyl-4-[[2-[[[(1,1-dimethyethyl)dimethylsilyl]oxy]methyl]-1H-imidazo[4,5-b]pyridin-1-yl]methyl]-3-methoxy-N-(1-methylethyl)benzamide]",51 nM,–
"COc1cc(C(=O)N(C(C)C)C2CCCCC2)ccc1Cn1c(CO)nc2ncccc21 [Example 17, N-cyclohexyl-4-[[2-(hydroxymethyl)-1H-imidazo [4,5-b]pyridin-1-yl]methyl]-3-methoxy-N-(1-methylethyl)benzamide]",6 nM,–
"COc1cc(C(=O)N(C(C)C)C2CCCCC2)ccc1Cn1c(CO)nc2cccnc21 [Example 18, N-cyclohexyl-4-[[2-(hydroxymethyl)-3H-imidazo [4,5-b]pyridin-3-yl]methyl]-3-methoxy-N-(1-methylethyl)benzamide]",11 nM,–
"COc1cc(C(=O)N(C(C)C)C2CCCCC2)ccc1Cn1c(CN(C)C)nc2ncccc21 [Example 19, N-cyclohexyl-4-[[2-[(dimethylamino)methyl]-1H-imidazo[4,5-b]pyridin-1-yl]methyl]-3-methoxy-N-(1-methylethyl)benzamide]",3 nM,–
"COc1cc(C(=O)N(C(C)C)C2CCCCC2)ccc1Cn1c(CN(C)C)nc2cccnc21 [Example 20, N-cyclohexyl-4-[[2-[(dimethylamino)methyl]-3H-imidazo[4,5-b]pyridin-3-yl]methyl]-3-methoxy-N-(1-methylethyl)benzamide]",10 nM,"inhibition at 0.01 µM ([1]; at 10 nM, two-run average): 62%"
"COCc1nc2ncccc2n1Cc1ccc(C(=O)N(C(C)C)C2CCCCC2)cc1OC [Example 21, N-cyclohexyl-3-methoxy-4-[[2-(methoxymethyl)-1H-imidazo [4,5-b]pyridin-1-yl]methyl]-N-(1-methylethyl)benzamide]",9 nM,–
"COCc1nc2cccnc2n1Cc1ccc(C(=O)N(C(C)C)C2CCCCC2)cc1OC [Example 22, N-cyclohexyl-3-methoxy-4-[[2-(methoxymethyl)-3H-imidazo[4,5-b]pyridin-3-yl]methyl]-N-(1-methylethyl)benzamide]",88 nM,–
"COc1cc(C(=O)N(C(C)C)C2CCCCC2)ccc1Cn1c(N(C)C)nc2ncccc21 [Example 23, N-cyclohexyl-4-[[2-(dimethylamino)-1H-imidazo[4,5-b]pyridin-1-yl]methyl]-3-methoxy-N-(1-methylethyl)benzamide]",13 nM,–
